# Legend:
# [1] = test system: Gram^+ bacteria, mainly staphylococci and streptococci; test: Antibacterial activity, disc diffusion method; assay type: cell-based
# Method: (§1) FIG. 10: Antibacterial features of colabomycin E—disc diffusion method. Colabomycin E samples were applied to standard 6 mm discs; therefore the zone diameters bellow 7 mm mean no growth inhibition. The strains kindly provided by the Czech National Collection of Type Cultures.
# (§2) Antibacterial activity of colabomycin E was tested by disc diffusion method. The strains were cultivated on MH agar plates at 36° C., aerobically for 18 hrs. For streptococci the media was supplemented with 5% sheep blood and the bacteria were cultivated aerobically for 20 hrs in 5% CO2. Colabomycin E samples dissolved in dioxane were applied to standard 6 mm discs; therefore zone diameters below 7 mm indicate no growth inhibition. The anti-inflammatory effect of colabomycin E was assayed on the TNFα-stimulated human monocyte/macrophage cell line THP-1. The cells were cultured in RPMI-1640 medium, supplemented with 10% heat inactivated fetal calf serum (FCS), L-glutamine, penicillin and streptomycin. Cells were seeded into 6-well tissue culture plates at a density of 2×10^6 cells per 2 ml per well and cultured under a 5% CO2 atmosphere at 37° C. THP-1 cells were stimulated with TNFα (50 ng/ml) under serum free conditions in the presence of colabomycin or manumycin A.
# Gram^− = test: Antibacterial activity, disc diffusion method; assay type: cell-based
# Method: as §1, §2
# [2] = test system: IL-18 production in THP-1 cells; test: IL-18 production in THP-1 cells stimulated with TNFα; assay type: cell-based, human; settings: 0.5 μM
# Method: as §2
# [3] = test system: IL-6 production in THP-1 cells; test: IL-6 production in THP-1 cells stimulated with TNFα; assay type: cell-based, human; settings: 0.5 μM
# Method: as §2
# [4] = test system: IL-1β release from THP-1 cells (caspase 1); test: IL-1β release from TNFα-stimulated THP-1 cells; assay type: cell-based, human; settings: for concentration at which the dose curve reached an inhibitory plateau (IL-1β release) / concentration from which IL-1β release is significantly inhibited: TNFα 50 ng/ml
# Method: as §2
# Unstimulated cells were used as controls. IL-1β release was measured through flow cytometry in culture supernatants by Fluorokine MAP human base kit A using the Luminex^100 System. In the first step, 50 μl of the samples/standards were incubated with 50 μl of microparticles for 3 hours at RT on a horizontal orbital microplate shaker. After washing the unbound substances, 50 μl of the secondary antibodies conjugated with biotin was added to each well and incubated the samples/standards for another 1 hour. After the incubation, the unbound secondary antibodies were washed and 50 μl of the Streptavidin-PE was added. After the 30 minutes of incubation, the samples/standards were washed and resuspended the microparticles in 100 μl of wash buffer. Samples/standards were read using a Luminex analyzer.
# [5] = test system: IL-8 production in THP-1 cells; test: IL-8 production in THP-1 cells stimulated with TNFα; assay type: cell-based, human; settings: 0.5 μM
# Method: as §2
# [6] = test system: human leukemic Jurkat cells; test: Pro-apoptotic features, Annexin V-FITC flow cytometry; assay type: cell-based; settings: 4 hours
# Method: Proapoptotic features were assayed using human Jurkat cells. The cells were cultivated in RPMI medium supplemented with 10% FBS and antibiotics. Just before experiments cells were plated into the fresh medium at 4×10^5 cells/ml in 24-well cultivation plates. They were treated with increasing concentrations of manumycin A (positive control) and colabomycin E for 4 hours. Cells were then harvested by centrifugation and apoptotic cells were labeled by Annexin V-FITC. The stained cells were subsequently analyzed by flow cytometry analysis in a Guava EasyCyte flow cytometer and the obtained data were evaluated using FlowJo software.)
Compound,anti-bacterial effects (overall) [1],growth of Gram+ bacteria ([1]; in higher concentrations),effect on Gram− bacteria (Gram^−),IL-18 production [2],IL-6 production [3],IL-1β release from THP-1 cells [4],concentration at which the dose curve reached an inhibitory plateau (IL-1β release) [4],concentration from which IL-1β release is significantly inhibited [4],IL-8 production [5],pro-apoptotic features ([6]; 5 μM),pro-apoptotic effect relative to manumycin A [6]
Colabomycin E,quite mild,suppresses growth,no effect,inhibit,inhibit,significantly inhibited,0.5 µM,0.25 µM,inhibit,weak pro-apoptotic features,substantially weaker
"CCCC[C@@H](C)/C=C(C)/C=C(\C)C(=O)NC1=C[C@@](O)(/C=C/C=C/C=C/C(=O)NC2=C(O)CCC2=O)[C@@H]2O[C@@H]2C1=O [manumycin A, reference compound]",–,–,–,–,–,–,0.5 µM,0.25 µM,–,–,–

# — patent publication US9447062B2, “Manumycin-type metabolite called Colabomycin E which inhibits caspase 1 and creation of interleukins, strain produces the Colabomycin E and a method of a production of the Colabomycin E” (BIOLOGY CENTRE AS CR, v. v. i., priority 2014, dated 2016)
